Measurements reported in ChEMBL document CHEMBL1671859, “bla(IMP-4) in different genetic contexts in Enterobacteriaceae isolates from Australia” (2008).
≈ marks a conversion by molar mass, not a printed value.

What was measured:
Type in all cases: functional
Klebsiella pneumoniae [1] = experiment: Antibacterial activity against Klebsiella pneumoniae isolate Kp3799 harboring IncL/M plasmid and blaIMP-4-qacG2-aacA4-catB3 array by Etest method
Serratia marcescens [2] = experiment: Antibacterial activity against Serratia marcescens isolate Sm220 harboring IncA/C plasmid and blaIMP-4-qacG2-aacA4-catB3 array by Etest method
Citrobacter amalonaticus [3] = experiment: Antibacterial activity against Citrobacter amalonaticus isolate Ca3927 harboring IncL/M plasmid and blaIMP-4-qacG2-aacA4-catB3 array by Etest method
Klebsiella oxytoca [4] = experiment: Antibacterial activity against Klebsiella oxytoca isolate Ko1156 harboring IncL/M plasmid and blaIMP-4-qacG2-aacA4-catB3 array by Etest method
Escherichia coli [5] = experiment: Antibacterial activity against Escherichia coli isolate Ec211 harboring IncA/C plasmid and blaIMP-4-qacG2-aacA4-catB3 array by Etest method
Citrobacter amalonaticus [6] = experiment: Antibacterial activity against Citrobacter amalonaticus isolate Ca38009 harboring IncL/M plasmid and blaIMP-4-qacG2-aacA4-catB3 array by Etest method
Serratia marcescens [7] = experiment: Antibacterial activity against Serratia marcescens isolate Sm203 harboring IncA/C plasmid and blaIMP-4-qacG2-aacA4-catB3 array by Etest method
Serratia marcescens [8] = experiment: Antibacterial activity against Serratia marcescens isolate Sm265 harboring IncA/C plasmid and blaIMP-4-qacG2-aacA4-catB3 array by Etest method
Klebsiella pneumoniae [9] = experiment: Antibacterial activity against Klebsiella pneumoniae isolate Kp38045 harboring IncL/M plasmid and blaIMP-4-qacG2-aacA4-catB3 array by Etest method
Serratia marcescens [10] = experiment: Antibacterial activity against Serratia marcescens isolate Sm211 harboring IncA/C plasmid and blaIMP-4-qacG2-aacA4-catB3 array by Etest method
Morganella morganii [11] = experiment: Antibacterial activity against Morganella morganii isolate Mm1229 harboring IncL/M plasmid and blaIMP-4-qacG2-aacA4-catB3 array by Etest method
Klebsiella pneumoniae [12] = experiment: Antibacterial activity against Klebsiella pneumoniae isolate Kp1239 harboring IncL/M plasmid and blaIMP-4-qacG2-aacA4-catB3 array by Etest method
Klebsiella pneumoniae [13] = experiment: Antibacterial activity against Klebsiella pneumoniae isolate Kp4614
Citrobacter youngae = experiment: Antibacterial activity against Citrobacter youngae isolate CyB38 harboring blaIMP-4-qacG2-aacA4-catB3 array by Etest method
Escherichia coli [14] = experiment: Antibacterial activity against Escherichia coli isolate Ec9381 harboring IncL/M plasmid and blaIMP-4-qacG2-aacA4-catB3 array by Etest method
Serratia marcescens [15] = experiment: Antibacterial activity against Serratia marcescens isolate Sm2723 harboring IncL/M plasmid and blaIMP-4-qacG2-aacA4-catB3 array by Etest method
Escherichia coli [16] = experiment: Antibacterial activity against Escherichia coli isolate Ec158 harboring IncA/C plasmid and blaIMP-4-qacG2-aacA4-catB3 array by Etest method
Citrobacter amalonaticus [17] = experiment: Antibacterial activity against Citrobacter amalonaticus isolate Ca1614 harboring IncL/M plasmid and blaIMP-4-qacG2-aacA4-catB3 array by Etest method
Klebsiella pneumoniae [18] = experiment: Antibacterial activity against Klebsiella pneumoniae isolate Kp1945 harboring IncL/M plasmid and blaIMP-4-qacG2-aacA4-catB3 and dfrA12-orfF-aadA2 arrays by Etest method
Citrobacter koseri = experiment: Antibacterial activity against Citrobacter koseri isolate Ck211 harboring IncA/C plasmid and blaIMP-4-qacG2-aacA4-catB3 array by Etest method
Citrobacter freundii = experiment: Antibacterial activity against Citrobacter freundii isolate Cf1614 harboring IncL/M plasmid and blaIMP-4-qacG2-aacA4-catB3 array by Etest method
Escherichia coli [19] = experiment: Antibacterial activity against Escherichia coli isolate Ec221 harboring IncA/C plasmid and blaIMP-4-qacG2-aacA4-catB3 array by Etest method
Klebsiella pneumoniae [20] = experiment: Antibacterial activity against Klebsiella pneumoniae isolate Kp149 harboring IncA/C plasmid and blaIMP-4-qacG2-aacA4-catB3 array by Etest method
Acinetobacter baumannii = experiment: Antibacterial activity against Acinetobacter baumannii isolate AbN450 harboring […]-qacG2-aacA4-catB3 array by Etest method
Klebsiella oxytoca [21] = experiment: Antibacterial activity against Klebsiella oxytoca isolate Ko0426 harboring IncL/M plasmid and blaIMP-4-qacG2-aacA4-catB3 array by Etest method
Klebsiella pneumoniae [22] = experiment: Antibacterial activity against Klebsiella pneumoniae isolate Kp38009 harboring IncL/M plasmid and blaIMP-4-qacG2-aacA4-catB3 array by Etest method
Morganella morganii [23] = experiment: Antibacterial activity against Morganella morganii isolate Mm1614 harboring IncL/M plasmid and blaIMP-4-qacG2-aacA4-catB3 array by Etest method
Klebsiella pneumoniae [24] = experiment: Antibacterial activity against Klebsiella pneumoniae isolate Kp2730 harboring IncL/M plasmid and blaIMP-4-qacG2-aacA4-catB3 and dfrA12-orfF-aadA2 arrays by Etest method
Klebsiella oxytoca [25] = experiment: Antibacterial activity against Klebsiella oxytoca isolate Ko238 harboring IncA/C plasmid and blaIMP-4-qacG2-aacA4-catB3 array by Etest method
Serratia marcescens [26] = experiment: Antibacterial activity against Serratia marcescens isolate Sm201 harboring IncA/C plasmid and blaIMP-4-qacG2-aacA4-catB3 array by Etest method
Klebsiella pneumoniae [27] = experiment: Antibacterial activity against Klebsiella pneumoniae isolate Kp204 harboring IncA/C plasmid and blaIMP-4-qacG2-aacA4-catB3 array by Etest method
Klebsiella pneumoniae [28] = experiment: Antibacterial activity against Klebsiella pneumoniae isolate Kp266 harboring IncA/C plasmid and blaIMP-4-qacG2-aacA4-catB3 array by Etest method
Klebsiella pneumoniae [29] = experiment: Antibacterial activity against Klebsiella pneumoniae isolate Kp7564 harboring IncL/M plasmid and blaIMP-4-qacG2-aacA4-catB3 array by Etest method
Acinetobacter = experiment: Antibacterial activity against Acinetobacter isolate A74510 harboring blaIMP-4-qacG2-aacA4-catB3 array by Etest method
Morganella morganii [30] = experiment: Antibacterial activity against Morganella morganii isolate Mm38009 harboring IncL/M plasmid and blaIMP-4-qacG2-aacA4-catB3 array by Etest method
Klebsiella pneumoniae [31] = experiment: Antibacterial activity against Klebsiella pneumoniae isolate Kp211 harboring IncA/C plasmid and blaIMP-4-qacG2-aacA4-catB3 array by Etest method

Structure (SMILES)	MIC (Serratia marcescens [2])	MIC (Citrobacter amalonaticus [3])	MIC (Klebsiella oxytoca [4])	MIC (Escherichia coli [5])	MIC (Citrobacter amalonaticus [6])	MIC (Serratia marcescens [7])	MIC (Serratia marcescens [8])	MIC (Serratia marcescens [10])	MIC (Morganella morganii [11])	MIC (Citrobacter youngae)	MIC (Escherichia coli [14])	MIC (Serratia marcescens [15])	MIC (Escherichia coli [16])	MIC (Citrobacter amalonaticus [17])	MIC (Citrobacter koseri)	MIC (Citrobacter freundii)	MIC (Escherichia coli [19])	MIC (Acinetobacter baumannii)	MIC (Klebsiella oxytoca [21])	MIC (Morganella morganii [23])	also measured
C[C@H]1[C@H](NC(=O)/C(=N\OC(C)(C)C(=O)O)c2csc(N)n2)C(=O)N1S(=O)(=O)O [AZTREONAM]	≤ 1 µg/mL	> 16 µg/mL	≤ 1 µg/mL	≤ 1 µg/mL	≤ 1 µg/mL	≤ 1 µg/mL	≤ 1 µg/mL	≤ 1 µg/mL	≤ 1 µg/mL	≤ 1 µg/mL	≤ 1 µg/mL	≤ 1 µg/mL	≤ 1 µg/mL	> 16 µg/mL	≤ 1 µg/mL	> 16 µg/mL	≤ 1 µg/mL	> 16 µg/mL	≤ 1 µg/mL	4 µg/mL (≈ 9.19 µM)	MIC (Klebsiella pneumoniae [1]): ≤ 1 µg/mL; MIC (Klebsiella pneumoniae [9]): ≤ 1 µg/mL; MIC (Klebsiella pneumoniae [12]): ≤ 1 µg/mL; MIC (Klebsiella pneumoniae [13]): ≤ 1 µg/mL; MIC (Klebsiella pneumoniae [18]): ≤ 1 µg/mL; MIC (Klebsiella pneumoniae [20]): > 16 µg/mL; MIC (Klebsiella pneumoniae [22]): ≤ 1 µg/mL; MIC (Klebsiella pneumoniae [24]): ≤ 1 µg/mL; MIC (Klebsiella oxytoca [25]): ≤ 1 µg/mL; MIC (Serratia marcescens [26]): ≤ 1 µg/mL; MIC (Klebsiella pneumoniae [27]): ≤ 1 µg/mL; MIC (Klebsiella pneumoniae [28]): ≤ 1 µg/mL; MIC (Klebsiella pneumoniae [29]): ≤ 1 µg/mL; MIC (Acinetobacter): > 16 µg/mL; MIC (Morganella morganii [30]): ≤ 1 µg/mL; MIC (Klebsiella pneumoniae [31]): ≤ 1 µg/mL
O=C(O)c1cn(C2CC2)c2cc(N3CCNCC3)c(F)cc2c1=O [CIPROFLOXACIN]	2 µg/mL (≈ 6.04 µM)	≤ 0.5 µg/mL	≤ 0.5 µg/mL	≤ 0.5 µg/mL	≤ 0.5 µg/mL	2 µg/mL (≈ 6.04 µM)	≤ 0.5 µg/mL	2 µg/mL (≈ 6.04 µM)	≤ 0.5 µg/mL	> 2 µg/mL	≤ 0.5 µg/mL	> 2 µg/mL	≤ 0.5 µg/mL	≤ 0.5 µg/mL	≤ 0.5 µg/mL	≤ 0.5 µg/mL	≤ 0.5 µg/mL	> 2 µg/mL	≤ 0.5 µg/mL	≤ 0.5 µg/mL	MIC (Klebsiella oxytoca [25]): ≤ 0.5 µg/mL; MIC (Serratia marcescens [26]): > 2 µg/mL; MIC (Acinetobacter): > 2 µg/mL; MIC (Morganella morganii [30]): ≤ 0.5 µg/mL
